From US20080275063A1, “Inhibitors of protein kinases” (priority 2007, published 2008)

Legend:
[1] = tested on: Tau protein at Serin396 in differentiated SH-SY5Y cells; experiment: In vitro SH-SY5Y assay, tau phosphorylation; type: cell-based, human; conditions: RA- and BDNF-differentiated SH-SY5Y cells, 90-120 min incubation, Western Blot or ELISA
Source text: Abnormal tau phosphorylation and deregulated CDK5/p35 activity are closely linked to each other and represent hallmarks of neurodegenerative diseases such as Alzheimer's disease, Parkinson's disease or Amyotrophic lateral sclerosis. The human neuroblastoma cell line SH-SY5Y can be utilized as an in vitro model to investigate CDK5 function and the efficacy of CDK5 specific inhibitors. SH-SY5Y cells express tau protein which harbors various phosphorylation sites known to be phosphorylated by several kinases including CDK5. SH-SY5Y cells can be differentiated into neuron-like cells by exposure to 10 μM all trans-retinoic acid for 3 days and subsequent exposure to 50 ng/ml human recombinant brain-derived neurotrophic factor for 3-5 days, thereby upregulating neuronal markers, including tau protein. In addition CDK5 and p35 protein levels were increased during differentiation. […]
Concentrations of total tau, pS396 tau and pT231 tau within the cell culture lysates are measured by using commercial ELISA Kits (BioSource: human total tau: KHB0042; human pS396 tau: KHB7031; human pT231 tau: KHB7051) according to the manufacturers instructions or by using Western Blots probing with total and phospho-specific antibodies (antibodies: total tau: Santa Cruz, sc-21796; pS396 tau: Santa Cruz, sc-12414; pT231 tau, AT180: Pierce Endogen, MN1040; pS202 tau: AT8: Pierce Endogen, MN1020). […]

| melting point [°C] | Structure (SMILES) | effect on Tau phosphorylation at Serin396 [1] |
| --- | --- | --- |
| 213.5 to 215.1 | CCOc1ccccc1-c1cc(Nc2ccc(CS(N)(=O)=O)cc2)ncn1 [Compound 6, {4-[6-(2-Ethoxy-phenyl)-pyrimidin-4-ylamino]-phenyl}-methanesulfonamide] | – |
| – | NS(=O)(=O)Cc1ccc(Nc2cc(-c3ccccc3OCc3ccccc3)ncn2)cc1 [Compound 8, {4-[6-(2-Benzyloxy-phenyl)-pyrimidin-4-ylamino]-phenyl}-methanesulfonamide] | significant inhibitory effect |
| 149.2 to 150.8 | COCCCNS(=O)(=O)Cc1cccc(Nc2cc(-c3ccccc3OC)ncn2)c1 [Reference compound 3, C-{3-[6-(2-methoxy-phenyl)-pyrimidin-4-ylamino]-phenyl}-N-(3-methoxy-propyl)-methanesulfonamide] | – |
